Laboratory results published in ChEMBL document CHEMBL1201862, “PubChem BioAssay data set” (2004).
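The compound was tested at five concentrations on cells cultured in 96-well plates, with a 48-hour exposure period. GI50 = concentration required for 50% inhibition of growth.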 Calls of active or inactive are those of the source. Rule as the data show it: active = GI50 up to about 1.1 µM and inactive = higher.

Experiments:
Assay in all cases: NCI anticancer screen, dose series, 48 h
786-0 = tested on: 786-0
CAKI-1 = tested on: CAKI-1
COLO 205 = tested on: COLO 205
HCC 2998 = tested on: HCC 2998
HCT-15 = tested on: HCT-15
IGROV-1 = tested on: IGROV-1
K562 = tested on: K562
KM12 = tested on: KM12
M14 = tested on: M14
MDA-N = tested on: MDA-N
NCI-H226 = tested on: NCI-H226
NCI/ADR-RES = tested on: NCI/ADR-RES
OVCAR-4 = tested on: OVCAR-4
SF-268 = tested on: SF-268
SF-295 = tested on: SF-295
SN12C = tested on: SN12C
SNB-19 = tested on: SNB-19
T47D = tested on: T47D
U-251 = tested on: U-251
UO-31 = tested on: UO-31

| Structure (SMILES) | GI50 (786-0) | GI50 (CAKI-1) | GI50 (COLO 205) | GI50 (HCC 2998) | GI50 (HCT-15) [µM] | GI50 (IGROV-1) | GI50 (K562) | GI50 (KM12) | GI50 (M14) | GI50 (MDA-N) | GI50 (NCI-H226) | GI50 (NCI/ADR-RES) | GI50 (OVCAR-4) | GI50 (SF-268) | GI50 (SF-295) | GI50 (SN12C) | GI50 (SNB-19) | GI50 (T47D) | GI50 (U-251) | GI50 (UO-31) |
| --- | --- | --- | --- | --- | --- | --- | --- | --- | --- | --- | --- | --- | --- | --- | --- | --- | --- | --- | --- | --- |
| O=C(O)c1ccccc1C1CCCc2c1[nH]c1ccccc21 (stereo not given) | > 100 µM (inactive) | 72.6 µM (inactive) | 74 µM (inactive) | > 100 µM (inactive) | 44.4 | 31.5 µM (inactive) | 34.6 µM (inactive) | 36.7 µM (inactive) | 53.5 µM (inactive) | 27.6 µM (inactive) | > 100 µM (inactive) | 66.1 µM (inactive) | 41.3 µM (inactive) | 66.1 µM (inactive) | 57 µM (inactive) | > 100 µM (inactive) | > 100 µM (inactive) | 11.4 µM (inactive) | 81.8 µM (inactive) | 58.5 µM (inactive) |
| C=C(CCC(=O)N(CCc1c[nH]c2ccccc12)C(=O)c1ccccc1CSCC)C(=O)OC | 50 µM (inactive) | 84.1 µM (inactive) | 20.9 µM (inactive) | 43.7 µM (inactive) | 26.5 | 60.1 µM (inactive) | 5.66 µM (inactive) | 8.2 µM (inactive) | 44.6 µM (inactive) | 38.4 µM (inactive) | 53.7 µM (inactive) | 27.3 µM (inactive) | 50 µM (inactive) | > 77.3 µM (inactive) | 24.7 µM (inactive) | 30.3 µM (inactive) | 56.5 µM (inactive) | 21.9 µM (inactive) | 10.3 µM (inactive) | 27.7 µM (inactive) |
| Cc1nc2c(-c3ccccc3)[nH]c(C)c2c(=O)o1 | 61.8 µM (inactive) | 37.2 µM (inactive) | 58.3 µM (inactive) | 57.5 µM (inactive) | 30.8 | 80.5 µM (inactive) | 40.1 µM (inactive) | > 100 µM (inactive) | 53.1 µM (inactive) | 45.6 µM (inactive) | 87.5 µM (inactive) | > 100 µM (inactive) | 70.1 µM (inactive) | 15.5 µM (inactive) | 79.6 µM (inactive) | > 100 µM (inactive) | > 100 µM (inactive) | 44.2 µM (inactive) | 34.9 µM (inactive) | 4.94 µM (inactive) |
| C/C(=N\NC(=S)N1CCCCC1)c1cccc(C)n1 | < 0.01 µM (active) | < 0.01 µM (active) | < 0.01 µM (active) | 0.082 µM (active) | < 0.01 | < 0.01 µM (active) | < 0.01 µM (active) | < 0.0221 µM (active) | 0.0141 µM (active) | 0.0871 µM (active) | < 0.01 µM (active) | < 0.01 µM (active) | 36.5 µM (inactive) | < 0.0103 µM (active) | 0.056 µM (active) | 0.0108 µM (active) | < 0.0143 µM (active) | < 0.01 µM (active) | < 0.01 µM (active) | 0.0414 µM (active) |
| CC(Nc1ccc(Cl)cc1)c1ccncc1 (stereo not given) | > 100 µM (inactive) | > 100 µM (inactive) | > 100 µM (inactive) | > 100 µM (inactive) | > 100 | 62.5 µM (inactive) | 75.3 µM (inactive) | 22.3 µM (inactive) | > 100 µM (inactive) | > 100 µM (inactive) | > 100 µM (inactive) | 61.5 µM (inactive) | > 100 µM (inactive) | 79.6 µM (inactive) | 72.6 µM (inactive) | > 100 µM (inactive) | > 100 µM (inactive) | 42.3 µM (inactive) | > 100 µM (inactive) | 63.1 µM (inactive) |
| CCNC(=O)/C(=C/c1ccc(OC)cc1)c1cc(OC)c(OC)c(OC)c1 | 8.85 µM (inactive) | 6.03 µM (inactive) | 5.11 µM (inactive) | 4.68 µM (inactive) | 4.11 | 19.7 µM (inactive) | 3.19 µM (inactive) | 4.23 µM (inactive) | 9.29 µM (inactive) | 1.58 µM (inactive) | 40.7 µM (inactive) | 3 µM (inactive) | 68.2 µM (inactive) | 13.8 µM (inactive) | 2.98 µM (inactive) | 20.7 µM (inactive) | 12.5 µM (inactive) | > 20.4 µM (inactive) | 7.21 µM (inactive) | 20.1 µM (inactive) |
